Results taken from EP2924037A1, “QUINAZOLINE DERIVATE AND USE THEREOF AS APOPTOSIS INHIBITOR” (Linx Pharmaceutical Co., Ltd., priority 2012, dated 2013).

Experiments:
[1] = test system: E. coli induced sepsis model; assay: E. coli induced sepsis model in mice; format: in vivo, BALB/C mice; settings: 0.4 mg/kg, 1.5 hours following injection of E. coli
Procedure: Terazosin was tested in a model of septicemia caused by E. coli injected. […] To determine the potential antibacterial effect, the growth of E. coli was examined in the presence of terazosin.

[2] = Effect on serum glucose in mice; format: in vivo; settings: Mus musculus, ip, 18 h, read-out: reduction of the serum glucose level
Procedure: Mice were injected terazosin (0.4 mg/kg i.p.) once. The serum glucose level of the mice was measured 18 hours later. […] By the same method, exemplary compounds Co.1, Co.3, Co.7, Co.9, Co.13, Co.16, Co.19, Co.24, Co.27 and Co.32 as described in the present invention were all shown to be effective to reduce the serum glucose level by 20% to 50%.

[3] = test system: active form of caspase-3 in Raw 264.7 cells; assay: Western blot of the active form of caspase-3 in cells treated with LPS and IFNγ; format: cell-based
Procedure: CLP was done one week after the injection.
For Western blot, an anti-active Caspase 3 antibody (#9664, Cell Signaling) was used. The anti-actin antibody was purchased from Wuhan Boster company, China.
(§1) RAW 264.7 cells were cultured in the DMEM medium (Gibco) supplemented with 5% FBS, streptomycin (0.1 mg/mL) and penicillin (0.06 mg/mL). To induce apoptosis, 2 µg/mL lipopolysaccharide (LPS; Escherichia coli O111:B4, Sigma-Aldrich) and IFN-γ (50 U/mL, Peprotech) were added, and a predetermined concentration of the testing compound was added at the same time. Cell death was assessed by Western blot with an anti-active Caspase 3 antibody (#9661, Cell Signaling). β-Actin (Boster) was used as internal control for protein loading. The ratio of Caspase 3/β-Actinwas was used to assess apoptosis.

CLP model of sepsis = format: in vivo, BALB/C mice
Procedure: (§2) Because E. coli and LPS models can only simulate Gram-negative bacteria infections, terazosin was further tested in a cecal ligation and puncture (CLP) model, which is believed to be the classic standard model of experimental septicemia (Parker and Watkins, 2001; Wichterman et al., 1980). First, 0.4 mg/kg of terazosin (same concentration as used in the LPS model) was tested. […] This may be due to severe cardiac dysfunction and hypotension induced by CLP. Thus, the blood pressure lowering function of the drug may have masked its anti-apoptotic effect. […] In addition, the combination of terazosin and antibiotics was tested. Terazosin was combined with amoxicillin and clavulanate potassium (Co-Am, amoxicillin and clavulanate potassium in a weight ratio of 4: 1, by way of a specific example elsewhere or instance mentioned in the present invention, also means a 4 : 1 ratio. Skilled in the art can understand, when a combination of amoxicillin and clavulanate potassium is referred to, the weight ratio of amoxicillin and clavulanate potassium can be from 1:1 to 10:1, especially 1:1-7:1, for example, about 1:1, about 4:1, about 7:1).
For the CLP model of sepsis, mice were anesthetized with chloral hydrate (300 mg/kg, i.p.). Then, a 1.5-2.0 cm long abdominal midline incision was made and the cecum was exposed. […]

[4] = test system: RAW264.7 macrophage cells; assay: LPS and IFNγ induced apoptosis, Annexin V staining; format: cell-based; settings: Mus musculus, LPS (2 µg/ml) and IFNγ (50 U/ml), read-out: reduction of apoptosis
Procedure: Cells were stained with Annexin V to examine apoptosis (Fig. 4). […] Terazosin (4 µg/ml) can reduced 50% of apoptosis (Fig. 4).
The RAW 264.7 cells were cultured in the DMEM medium (Gibco) supplemented with 10% FBS (Gibco), streptomycin (0.1 g/L) and penicillin (0.06 g/L) (Amresco). To induce apoptosis, RAW 264.7 cells at 90% confluence were incubated in DMEM (10% FBS) containing 2 µg/mL lipopolysaccharide (LPS; Escherichia coli O111:B4, Sigma) for 24 hours.
as §1

[5] = Blood pressure of injected mice; format: in vivo; settings: 0.08 mg/kg
Procedure: as §2

HS>rpr Drosophila = assay: Compound screen in the apoptotic HS>rpr Drosophila model; format: in vivo; settings: heat shock at 37 °C; 25 compounds screened
Procedure: HS-Gal4 (a promoter that can be expressed in whole body and activated by heat), can promote expression of any genes having repeated UAS (upstream activating sequence) at the 5' region. The HS-Gal4 and UAS-Reaper Drosophila were crossed at 18 °C to produce hybrids referred to as HS> rpr, and the female offspring underwent normal development. However, with heat shock for 2-3 hours at 37 °C, about 50-70% of the offspring died after 14-24 h (Fig. 1). 25 compounds were selected (Fig. 2) to determine their impact on the lethal rate of HS> rpr.
UAS-rpr and HS-Gal4 flies were obtained from Bloomington Stock Center in the US. The F1 progenies (HS>rpr) from the cross of these two lines were raised at 18 °C for the compound screen. Compounds were dissolved in 5% sucrose at the concentrations used in the culture media for Cmap. The compound solution (150 µL) was added to a vial containing three layers of filter papers. Twenty adult HS>rpr flies aged 1-3 days were then placed into each vial for 24 hours. The flies were heat shocked at 37 °C for 2 hrs. The survival rate was calculated 12 hrs after the heat shock.

[6] = test system: sepsis models (LPS; Cecal Ligation and Puncture); assay: Effects against sepsis (LPS and CLP models), 7-day survival; format: in vivo, BALB/C mice; settings: i.p. once a day for 3 days at 0.4 mg/kg; 7-day period; P < 0.05 compared to negative controls
Procedure: After 1.5 hours, compounds were injected (i.p.) at a predetermined concentration. Mouse survival was examined every 12 hours for 7 days. Statistical significance of the difference in the survival rates was analyzed.
Another model is Cecal Ligation and Puncture (CLP) model of sepsis. Mice were anesthetized. A 1.5-2.0 cm long abdominal midline incision was made and the cecum was exposed. After ligation 5 mm from the cecal tip, the cecum was punctured once with a 22-gauge needle, and some stool was squeezed out. Then the cecum was put back into the abdomen and the abdomen was closed by running suture. After 1.5 hours, compounds were injected (i.p.) at a predetermined concentration. Mouse survival was examined every 12 hours for 7 days. Statistical significance of the difference in the survival rates was analyzed.
These compounds were individually injected (i.p.) once a day for 3 days at 0.4 mg/kg.

E. Coli O111:B4 = assay: Oxford Cup test of antibiotic activity; format: cell-based; settings: after 24 hrs; terazosin 0.2µg, 2µg, 200µg, 2mg; ampicillin 2mg
Procedure: The antibiotic activity of terazosin was measured by Oxford Cup test. Oxford Cups containing different concentrations of terazosin were placed in the petri dish wherein E. Coli O111:B4 was cultured on LB medium. The effects of terazosin and ampicillin on the growth of E. Coli were examined after 24 hrs.

Procedure for LPS-induced sepsis model: Male BALB/C mice (20±3g) from Vital River (Beijing, China) were housed in the Animal Center of Peking University. […] For the LPS model of sepsis, each mouse was injected with LPS (13.5 mg/kg, i.p.) once. […] Terazosin (0.4 mg/kg or 0.04 mg/kg) or saline was then injected (i.p.) 1.5 hours after LPS infusion. Lethality was recorded every 12 hours for 7 days.
24 hrs after LPS injection, one thymus from each mouse was collected. Then, the genomic DNA of thymus was extracted with a genomic DNA purification kit (Biofuture, Beijing, China). DNA fragmentation was assessed on a DNA agarose gel.

SMILES: COc1cc2nc(N3CCN(C(=O)C4CCCO4)CC3)nc(N)c2cc1OC (stereo not drawn) [Co.33, (4-(4-amino-6,7-dimethoxyquinazolin-2-yl)piperazin-1-yl)(tetrahydrofuran-2-yl)methanone]
- protection from E. coli-induced death [1]: can protect mice from E. coli-induced death
- inhibition in vivo at 0.4 mg/kg [2]: 30%
- active form of caspase-3 [3]: decreased
- survival of mice in the CLP model (CLP model of sepsis; 0.08 mg/kg, injected at 1.5 hours and 24 hours after surgery): significantly promoted the survival of mice
- death of mice in the CLP model versus control (CLP model of sepsis; mouse, in vivo): died faster than the control group
- inhibition at 4 µg/mL [4]: 50%
- blood pressure of the injected mice [5]: completely normal
- survival rate of HS>rpr Drosophila (HS>rpr Drosophila): significantly improve the survival rate
- survival against sepsis [6]: significantly increased survival against sepsis
- effect in later phases of septicemia (survival) (LPS-induced sepsis model; injected at 12 hours after LPS treatment (0.04 mg/kg per Fig. 6)): satisfactory results
- DNA ladders in genomic DNA of the thymus (LPS-induced sepsis model; mice treated with LPS and terazosin vs LPS, 24 hrs after LPS injection): significantly reduced
- growth of E. coli (inhibition zones) (E. Coli O111:B4): cannot inhibit the growth of E. coli
